Reference: publication PMC2263054, “Functional evolution of the vitamin D and pregnane X receptors” (BMC Evolutionary Biology, 2007)
Read-outs that look alike come from different tables or passages of the source.

Columns and labels:
[1] = test system: MDR1 (tentatively classified as ABCB5 in zebrafish); test: zebrafish in vivo liver transcription, semi-quantitative RT-PCR: MDR1; details: ip, 15 mg/kg, 48 h
Description: (§1) Adult zebrafish were purchased from a commercial fish supplier and acclimatized for at least two-weeks in 20 L tanks with flow-through freshwater at 22°C. A single dose of 15 mg/kg of 5α-cyprinol, 5β-cyprinol 27-sulfate, 5α-scymnol or 5β-scymnol-27 sulfate, dissolved in saline, was injected intraperitoneally. A control group was injected with saline. After 48 hr, the animals were decapitated and livers of three fish (n = 5 each group) were removed, pooled and weighed, totalizing 15 fish per group. Fish were not fed throughout the experimental period. […].
(§2) To study the transcription of CYP3C1, ABCB5, PXR, GAPDH and β-actin genes in zebrafish, initial fragments of these genes were identified (Genbank: AW202769, Genbank: BQ284593, Genbank: AAM22215, Genbank: BC083506, Genbank: AF057040, respectively). The PCR primers for CYP3C1 were designed using MacVector Software and primers for MDR1 were designed using Primer 3 Software (Whitehead Institute for Biomedical Research; [75]). Primer pairs for amplifying CYP3C1 fragment were 5'-[…]-3' (sense) and 5'-[…]-3' (antisense) and for amplifying ABCB5 were 5'-[…]-3' (sense) and 5'-[…]-3' (antisense). The PCR primers for PXR were 5'-[…]-3' (sense) and 5'-[…]-3' (antisense), for amplifying GAPDH were 5'-[…]-3' (sense) and 5' […] 3' (antisense) and for β-actin were 5'-[…]-3' (sense) and 5'-[…]-3' (antisense). RNA was isolated using Trizol (Invitrogen) according to manufacturer's instructions. Purity and concentration of RNA of each sample were verified at 260 nm. The RNA integrity was checked by non-denaturing gel electrophoresis using 1 μg of total RNA in each sample.
(§3) Two micrograms of total RNA were reversed transcribed using Ominiscript RT Kit (Qiagen, Valencia, CA, USA). cDNA concentration was checked at 260 nm, and the amount adjusted to 1 μg to perform semi-quantitative RT-PCR. The expected size of the PXR, Cyp3C1, abcb5, GAPDH and β-actin fragments were 577, 477, 218, 234 and 550 bp, respectively. Biotools DNA polymerase (Biotools B&M Labs, S.A., Madrid, Spain) kit was used for the PCR reaction using a thermocycler Personal Mastercycler (Eppendörf) with the following PCR program: 5 cycles of 94°C for 5 s, 72°C for 35 s; 5 cycles of 94°C for 5 s, 70°C for 10 s, 72°C for 35 s; and 23, 24, 35, 15 and 24 cycles (PXR, Cyp3C1, abcb5, GAPDH and β-actin, respectively) of 94°C for 5 s, 61, 54, 48, 49 and 61°C for 10 s (PXR, Cyp3C1, abcb5, GAPDH and β-actin, respectively), and 72°C for 35 s. The PXR, CYP3C1, ABCB5 and GAPDH transcript levels were quantified using Gel-Quant™ (Multiplexed Biotechologies) and β-actin was used to normalize the data. The Shapiro-Wilk W test was used to evaluate normality. When data were parametric the analysis was performed using Student t test; otherwise Mann Whitney U test was applied. […]

CYP3C1 = test: zebrafish in vivo liver transcription, semi-quantitative RT-PCR: CYP3C1; details: ip, 15 mg/kg, 48 h
Description: as §1, §2, §3

zebrafish PXR [2] = details: cited from earlier work
Zebrafish VDR = molecular target: T1, Zebrafish VDR (Danio rerio, UniProt Q9PTN2); test: luciferase reporter transactivation assay in HepG2-NTCP cells, GAL4/zfVDR LBD chimera with tk-UAS-Luc; assay type: cell-based
T1 sequence (Q9PTN2 121-453): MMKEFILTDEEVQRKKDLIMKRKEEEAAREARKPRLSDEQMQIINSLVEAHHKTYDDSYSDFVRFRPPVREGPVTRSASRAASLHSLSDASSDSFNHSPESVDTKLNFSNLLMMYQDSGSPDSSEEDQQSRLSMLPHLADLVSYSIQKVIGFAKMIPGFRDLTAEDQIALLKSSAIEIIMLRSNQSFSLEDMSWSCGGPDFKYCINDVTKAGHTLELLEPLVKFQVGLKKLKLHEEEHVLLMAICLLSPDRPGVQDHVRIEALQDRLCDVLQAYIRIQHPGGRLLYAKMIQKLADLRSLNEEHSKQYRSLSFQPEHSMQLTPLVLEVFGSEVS

Xenopus laevis VDR = molecular target: T2, Xenopus laevis VDR (Xenopus laevis, UniProt O13124); test: luciferase reporter transactivation assay in HepG2-NTCP cells, GAL4/xlVDR LBD chimera with tk-UAS-Luc; assay type: cell-based
T2 sequence (O13124 90-422): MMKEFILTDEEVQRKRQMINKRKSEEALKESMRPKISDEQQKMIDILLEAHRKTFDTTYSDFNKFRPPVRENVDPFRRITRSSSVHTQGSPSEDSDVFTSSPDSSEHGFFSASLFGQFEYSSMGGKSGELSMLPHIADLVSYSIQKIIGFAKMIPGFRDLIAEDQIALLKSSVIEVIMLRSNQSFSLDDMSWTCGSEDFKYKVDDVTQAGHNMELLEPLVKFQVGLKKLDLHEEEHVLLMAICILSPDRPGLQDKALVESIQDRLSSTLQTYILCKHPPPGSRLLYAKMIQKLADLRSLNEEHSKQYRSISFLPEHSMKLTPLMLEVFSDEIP

[3] = test system: glyceraldehyde 3-phosphate dehydrogenase (GAPDH); test: zebrafish in vivo liver transcription, semi-quantitative RT-PCR: GAPDH; details: 15 mg/kg intraperitoneally, single dose, 48 hr
Description: Adult zebrafish were purchased from a commercial fish supplier and acclimatized for at least two-weeks in 20 L tanks with flow-through freshwater at 22°C. A single dose of 15 mg/kg of 5α-cyprinol, 5β-cyprinol 27-sulfate, 5α-scymnol or 5β-scymnol-27 sulfate, dissolved in saline, was injected intraperitoneally. A control group was injected with saline. After 48 hr, the animals were decapitated and livers of three fish (n = 5 each group) were removed, pooled and weighed, totalizing 15 fish per group. Fish were not fed throughout the experimental period.
as §2, with “The PCR primers for CYP3C1 were designed using MacVector Software and primers for MDR1 were designed using Primer 3 Software (Whitehead Institute for Biomedical Research; [75]).” left out, “Purity and concentration of RNA of each sample were verified at 260 nm.” left out
The PXR, CYP3C1, ABCB5 and GAPDH transcript levels were quantified using Gel-Quant™ (Multiplexed Biotechologies) and β-actin was used to normalize the data. The Shapiro-Wilk W test was used to evaluate normality. When data were parametric the analysis was performed using Student t test; otherwise Mann Whitney U test was applied.

β-actin = test: zebrafish in vivo liver transcription, semi-quantitative RT-PCR: β-actin; details: ip, 15 mg/kg, 48 h
Description: as §1, §2, §3

Sea lamprey VDR = molecular target: T3, Sea lamprey VDR (Petromyzon marinus, UniProt Q7ZZY9); assay type: cell-based
T3 sequence (Q7ZZY9 92-406): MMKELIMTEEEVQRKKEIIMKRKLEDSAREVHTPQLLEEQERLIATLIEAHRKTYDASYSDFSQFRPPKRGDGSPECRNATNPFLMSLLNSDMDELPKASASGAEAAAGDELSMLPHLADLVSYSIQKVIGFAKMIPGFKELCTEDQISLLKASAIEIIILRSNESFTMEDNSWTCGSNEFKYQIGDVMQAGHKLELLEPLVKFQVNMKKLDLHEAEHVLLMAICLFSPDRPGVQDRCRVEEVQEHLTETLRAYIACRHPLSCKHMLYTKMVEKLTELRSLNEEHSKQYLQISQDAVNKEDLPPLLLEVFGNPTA

PXR = test: zebrafish in vivo liver transcription, semi-quantitative RT-PCR: PXR; details: ip, 15 mg/kg, 48 h
Description: as §1, §2, §3

[4] = test system: ethoxyresorufin O-deethylase (EROD) activity (CYP1A-like activity); test: in vitro
Description: (§4) The cells are cultured at 26°C in ambient atmosphere.

zebrafish PXR [5] = test system: zebrafish PXR
[6] = test system: testosterone 6β-hydroxylation activity (CYP3A-like activity); test: in vitro; details: zebrafish
Description: as §4
(§5) 100 μL of sample, calibration standard, or quality material standard were pipetted into separate microcentrifuge tubes and mixed with 100 μL of methanol. Samples were vortexed and centrifuged at 13,000 rpm for 4 min. The supernatant was then injected into the HPLC.
(§6) The flow rate was 1.2 mL/min and total run time was 25 min.

EROD activity = test: EROD assay in sea lamprey primary hepatocytes; details: 24–48 hr exposure
[7] = test system: flurbiprofen 4-hydroxylation activity (CYP2C-like activity)
[8] = test system: testosterone 6β-hydroxylation; test: testosterone hydroxylation (HPLC) in sea lamprey primary hepatocytes; assay type: cell-based; details: concentration ranges per compound
Description: as §5, §6

[9] = screening for activators, at least three concentrations of each drug

Q: For C[C@H](CCC(O)C(CO)CO)[C@H]1CC[C@H]2[C@@H]3[C@H](O)C[C@@H]4C[C@H](O)CC[C@]4(C)[C@H]3C[C@H](O)[C@]12C (stereo partly drawn) [5β-scymnol, 5β-cholestan-3α,7α,12α,24,26,27-hexol], which “liver transcription of MDR1 (ABCB5)” value [1] is on record?
A: Its value is 1.08 ± 0.17 arbitrary units normalized to β-actin.

Q: What about the “liver transcription of CYP3C1” value (CYP3C1) of the same molecule?
A: Its value is 1.17 ± 0.50 arbitrary units normalized to β-actin.

Q: And the “activity at recombinant zebrafish PXR” value (zebrafish PXR [2])?
A: The value was “both inactive at recombinant zebrafish PXR”.

Q: And the “Effect on zebrafish VDR” value (Zebrafish VDR; [9])?
A: Its value is “No effect”.

Q: What about the “Effect on Xenopus laevis VDR” value (Xenopus laevis VDR; [9]) of the same molecule?
A: Its value is “No effect”.

Q: And the “liver transcription of GAPDH” value [3]?
A: The value was 1.17 ± 0.58 arbitrary units normalized to β-actin.

Q: And the “liver transcription of β-actin” value (β-actin)?
A: The value was 62.2 ± 21.8 arbitrary units.

Q: And the “Effect on sea lamprey VDR” value (Sea lamprey VDR; [9])?
A: The value was “No effect”.

Q: And the “liver transcription of PXR” value (PXR)?
A: Its value is 0.92 ± 0.38 arbitrary units normalized to β-actin.

Q: Which “effect on EROD activity” value [4] does the source give for CCC1(c2ccccc2)C(=O)NC(=O)NC1=O [Phenobarbital] here?
A: Its value is “found not to affect EROD activity”.

Q: What about the “activation of recombinant zebrafish PXR” value (zebrafish PXR [5]) of the same molecule?
A: The value was “all activate recombinant zebrafish PXR”.

Q: And the EC50 [6]?
A: The EC50 was 928 ± 109 µM.

Q: And the “effect on EROD activity” value (EROD activity)?
A: Its value is “did not alter EROD activity”.

Q: What about the “Effect on zebrafish VDR” value (Zebrafish VDR) of the same molecule?
A: Its value is “No effect”.

Q: And the “Effect on Xenopus laevis VDR” value (Xenopus laevis VDR)?
A: Its value is “No effect”.

Q: And the “maximal flurbiprofen 4-hydroxylation activities” value [7]?
A: The value was “greater than 50 nmol/min/mg protein”.

Q: And the “Effect on sea lamprey VDR” value (Sea lamprey VDR)?
A: The value was “No effect”.

Q: And the “effect on testosterone 6β-hydroxylation” value [8]?
A: The value was “None of these compounds produced significant increases in testosterone 6β-hydroxylation”.
